# Assay results: patent US20060083830A1, “Polylysine-containing food additive and acidic adjuvant” (priority 2004, published 2006)
# Where “and” joins values, the source holds several entries; their conditions need not be identical. Identical values can stand only once.
# Assays:
# Listeria monocytogenes [1] = experiment: L. monocytogenes on cooked ground turkey balls blended with ε-polylysine, with or without 5 second acidic adjuvant spray, incubated at 8° C., CFU determination; assay type: cell-based; conditions: for Log Reduction: vs control
# Description: Four groups of 20 g ground uncooked turkey balls were prepared, with 54 balls prepared per group. […] Groups B-D were blended with varying amounts of ε-polylysine (“ε-PL”). Final concentrations of ε-polylysine within the turkey balls were:
# After preparation, all meatballs were placed on baking sheets and baked in a conventional oven at 350° F. for 20 minutes. After baking, the meatballs were packaged separately and stored at 4° C.
# The mixture was further diluted 1:5000 times with sterile saline to produce a suspension for use. […] 20 microliters of the Listeria monocytogenes suspension was inoculated onto the exterior of each turkey ball. The turkey balls were incubated at room temperature for 30 min post-inoculation to allow bacteria to attach.
# Each group of meatballs (54 per group) was divided into two groups of 27 meatballs and labeled as control or treated meatballs as follows: AC, AT, BC, BT, CC, CT, DC and DT, respectively. Control meatballs labeled AC, BC, CC, and DC were sprayed for 5 seconds with sterile water. Treated meatballs labeled AT, BT, CT and DT were sprayed for 5 seconds with the acidic adjuvant prepared in Example 4 above (Safe2O®brandRTE 01, Mionix Corporation, Rocklin, Calif.) diluted 2 parts water to 1 part solution, having a final pH of about 1.5. After the spray treatment, the meatballs were packaged individually, vacuum sealed and incubated at 8° C.
# The microbiological assay was performed after 24 hours, 1 week, 2 weeks, 3 weeks, and 4 weeks. After each designated time period had passed, three bags from each group of meat balls were unpacked, transferred to a stomacher bag along with 20 ml of sterile 0.1% peptone water. Each meatball was hand crushed and stomached at high speed for 2 minutes.
# [2] = rats, two generations; Neda et al., 1999; cited from earlier work
# Listeria monocytogenes [3] = experiment: Listeria monocytogenes on boiled dumpling sheets with ε-polylysine in the dough, vacuum sealed, 10° C., CFU determination; conditions: for Log Reduction: vs control Group A
substance,measurement,setting,value
"poly(imino(2-amino-1-oxo-1,6-hexanediyl)) [ε-PL]",average Log Value,"Listeria monocytogenes [1]; 1000 ppm ε-PL, after 1 week",5.38
same,average of CFU/g,"Listeria monocytogenes [1]; 1000 ppm ε-PL, after 1 week",2.41E+05 CFU/g
same,Log Reduction,"Listeria monocytogenes [1]; 1000 ppm ε-PL, after 1 week",2.99
same,average Log Value,"Listeria monocytogenes [1]; 1000 ppm ε-PL, after 2 weeks",4.76
same,average of CFU/g,"Listeria monocytogenes [1]; 1000 ppm ε-PL, after 2 weeks",5.72E+04 CFU/g
same,Log Reduction,"Listeria monocytogenes [1]; 1000 ppm ε-PL, after 2 weeks",4.09
same,average Log Value,"Listeria monocytogenes [1]; 1000 ppm ε-PL, after 3 weeks",5.94
same,average of CFU/g,"Listeria monocytogenes [1]; 1000 ppm ε-PL, after 3 weeks",8.75E+05 CFU/g
same,average Log Value,"Listeria monocytogenes [1]; 1000 ppm ε-PL, after 4 weeks",6.67
same,average of CFU/g,"Listeria monocytogenes [1]; 1000 ppm ε-PL, after 4 weeks",4.64E+06 CFU/g
same,Log Reduction,"Listeria monocytogenes [1]; 1000 ppm ε-PL, after 4 weeks",1.91
same,average Log Value,"Listeria monocytogenes [1]; 1000 ppm ε-PL, after 24 hours",2.22
same,average of CFU/g,"Listeria monocytogenes [1]; 1000 ppm ε-PL, after 24 hours",1.67E+02 CFU/g
same,Log Reduction,"Listeria monocytogenes [1]; 1000 ppm ε-PL, after 24 hours",1.48
same,average Log Value,"Listeria monocytogenes [1]; 2000 ppm ε-PL, after 1 week",1.40
same,average of CFU/g,"Listeria monocytogenes [1]; 2000 ppm ε-PL, after 1 week",2.53E+01 CFU/g
same,Log Reduction,"Listeria monocytogenes [1]; 2000 ppm ε-PL, after 1 week",6.97
same,average Log Value,"Listeria monocytogenes [1]; 2000 ppm ε-PL, after 2 weeks",4.27
same,average of CFU/g,"Listeria monocytogenes [1]; 2000 ppm ε-PL, after 2 weeks",1.88E+04 CFU/g
same,Log Reduction,"Listeria monocytogenes [1]; 2000 ppm ε-PL, after 2 weeks",4.57
same,average Log Value,"Listeria monocytogenes [1]; 2000 ppm ε-PL, after 3 weeks",2.95
same,average of CFU/g,"Listeria monocytogenes [1]; 2000 ppm ε-PL, after 3 weeks",8.96E+02 CFU/g
same,Log Reduction,"Listeria monocytogenes [1]; 2000 ppm ε-PL, after 3 weeks",5.33
same,average Log Value,"Listeria monocytogenes [1]; 2000 ppm ε-PL, after 4 weeks",3.86
same,average of CFU/g,"Listeria monocytogenes [1]; 2000 ppm ε-PL, after 4 weeks",7.18E+03 CFU/g
same,Log Reduction,"Listeria monocytogenes [1]; 2000 ppm ε-PL, after 4 weeks",4.72
same,average Log Value,"Listeria monocytogenes [1]; 2000 ppm ε-PL, after 24 hours",1.36
same,average of CFU/g,"Listeria monocytogenes [1]; 2000 ppm ε-PL, after 24 hours",2.27E+01 CFU/g
same,Log Reduction,"Listeria monocytogenes [1]; 2000 ppm ε-PL, after 24 hours",2.35
same,average Log Value,"Listeria monocytogenes [1]; 3000 ppm ε-PL, after 1 week",<0.94
same,average of CFU/g,"Listeria monocytogenes [1]; 3000 ppm ε-PL, after 1 week",<8.67E+00 CFU/g
same,Log Reduction,"Listeria monocytogenes [1]; 3000 ppm ε-PL, after 1 week",>7.43
same,average Log Value,"Listeria monocytogenes [1]; 3000 ppm ε-PL, after 2 weeks",<2.21
same,average of CFU/g,"Listeria monocytogenes [1]; 3000 ppm ε-PL, after 2 weeks",<1.61E+02 CFU/g
same,Log Reduction,"Listeria monocytogenes [1]; 3000 ppm ε-PL, after 2 weeks",<6.64
same,CFU/g,"Listeria monocytogenes [1]; 3000 ppm ε-PL, after 3 weeks",<2.00E+00 CFU/g
same,average Log Value,"Listeria monocytogenes [1]; 3000 ppm ε-PL, after 3 weeks",<0.30
same,average of CFU/g,"Listeria monocytogenes [1]; 3000 ppm ε-PL, after 3 weeks",<2.00E+00 CFU/g
same,Log Reduction,"Listeria monocytogenes [1]; 3000 ppm ε-PL, after 3 weeks",<7.98
same,average Log Value,"Listeria monocytogenes [1]; 3000 ppm ε-PL, after 4 weeks",>3.56
same,average of CFU/g,"Listeria monocytogenes [1]; 3000 ppm ε-PL, after 4 weeks",>3.61E+03 CFU/g
same,Log Reduction,"Listeria monocytogenes [1]; 3000 ppm ε-PL, after 4 weeks",<5.02
same,CFU/g,"Listeria monocytogenes [1]; 3000 ppm ε-PL, after 24 hours",1.40E+01 CFU/g and 1.60E+01 CFU/g and 1.00E+01 CFU/g
same,average Log Value,"Listeria monocytogenes [1]; 3000 ppm ε-PL, after 24 hours",1.12
same,average of CFU/g,"Listeria monocytogenes [1]; 3000 ppm ε-PL, after 24 hours",1.33E+01 CFU/g
same,Log Reduction,"Listeria monocytogenes [1]; 3000 ppm ε-PL, after 24 hours",2.58
same,"controlling the outgrowth of Listeria, ε-PL alone vs secondary acidic adjuvant spray for 5 sec",Listeria monocytogenes [1]; Tables 2.1-2.5,more effective in controlling the outgrowth of Listeria than the effect of a secondary spray application of the acidic adjuvant
same,safety as a food additive,[2],no adverse reproductive toxological effects
same,CFU/dumpling,"Listeria monocytogenes [3]; 1000 ppm ε-PL, after 1 hour",3.80E+02 CFU/dumpling and 4.00E+02 CFU/dumpling and 2.00E+02 CFU/dumpling
same,average Log Value,"Listeria monocytogenes [3]; 1000 ppm ε-PL, after 1 hour",2.15
same,average of CFU/dumpling,"Listeria monocytogenes [3]; 1000 ppm ε-PL, after 1 hour",3.27E+02 CFU/dumpling
same,Log Reduction,"Listeria monocytogenes [3]; 1000 ppm ε-PL, after 1 hour",0.89
same,average Log Value,"Listeria monocytogenes [3]; 1000 ppm ε-PL, after 24 hours",2.32
same,average of CFU/dumpling,"Listeria monocytogenes [3]; 1000 ppm ε-PL, after 24 hours",2.10E+02 CFU/dumpling
same,Log Reduction,"Listeria monocytogenes [3]; 1000 ppm ε-PL, after 24 hours",2.42
same,post-lethality effect,"Listeria monocytogenes [3]; 2000 ppm and above, limits of detection 10 CFU/piece",killed the Listeria down to the limits of detection
same,CFU/dumpling,"Listeria monocytogenes [3]; 2000 ppm ε-PL, after 1 hour",<1.00E+01 CFU/dumpling
same,average Log Value,"Listeria monocytogenes [3]; 2000 ppm ε-PL, after 1 hour",<1.00
same,average of CFU/dumpling,"Listeria monocytogenes [3]; 2000 ppm ε-PL, after 1 hour",<1.00E+01 CFU/dumpling
same,Log Reduction,"Listeria monocytogenes [3]; 2000 ppm ε-PL, after 1 hour",>2.41
same,CFU/dumpling,"Listeria monocytogenes [3]; 2000 ppm ε-PL, after 24 hours",<1.00E+01 CFU/dumpling
same,average Log Value,"Listeria monocytogenes [3]; 2000 ppm ε-PL, after 24 hours",<1.00
same,average of CFU/dumpling,"Listeria monocytogenes [3]; 2000 ppm ε-PL, after 24 hours",<1.00E+01 CFU/dumpling
same,Log Reduction,"Listeria monocytogenes [3]; 2000 ppm ε-PL, after 24 hours",>3.74
same,CFU/dumpling,"Listeria monocytogenes [3]; 3000 ppm ε-PL, after 1 hour",<1.00E+01 CFU/dumpling
same,average Log Value,"Listeria monocytogenes [3]; 3000 ppm ε-PL, after 1 hour",<1.00
same,average of CFU/dumpling,"Listeria monocytogenes [3]; 3000 ppm ε-PL, after 1 hour",<1.00E+01 CFU/dumpling
same,Log Reduction,"Listeria monocytogenes [3]; 3000 ppm ε-PL, after 1 hour",>2.41
same,CFU/dumpling,"Listeria monocytogenes [3]; 3000 ppm ε-PL, after 24 hours",<1.00E+01 CFU/dumpling
same,average Log Value,"Listeria monocytogenes [3]; 3000 ppm ε-PL, after 24 hours",<1.00
same,average of CFU/dumpling,"Listeria monocytogenes [3]; 3000 ppm ε-PL, after 24 hours",<1.00E+01 CFU/dumpling
same,Log Reduction,"Listeria monocytogenes [3]; 3000 ppm ε-PL, after 24 hours",>3.74
same,replication of Listeria monocytogenes,Listeria monocytogenes [3]; final concentration of 1000-3000 ppm in flour portion of dumpling,completely suppressed replication of Listeria monocytogenes
